Reference: the NIST ThermoML archive (doi:10.1021/je200668a)
Several values for one entry are separate records, joined by “and”; a condition that tells them apart may be missing. Equal values may be shown once. Numbers after ± are expanded uncertainties.

Conditions: Liquid, Pulse Transmission

O [water]
Conditions | speed of sound
252.47 K, 215100 kPa | 1715.3 ± 2.8 m/s
252.47 K, 220000 kPa | 1725.1 ± 2.8 m/s
252.5 K, 205200 kPa | 1695.9 ± 2.7 m/s
252.5 K, 209900 kPa | 1705.2 ± 2.8 m/s
252.5 K, 215300 kPa | 1716.8 ± 2.8 m/s
252.5 K, 240000 kPa | 1764.3 ± 2.8 m/s
252.51 K, 220200 kPa | 1726.7 ± 2.8 m/s
252.51 K, 235100 kPa | 1754.9 ± 2.9 m/s
252.51 K, 245400 kPa | 1774.8 ± 2.8 m/s
252.52 K, 210100 kPa | 1705.8 ± 2.8 m/s and 1706 ± 2.8 m/s
252.52 K, 244900 kPa | 1773.9 ± 2.8 m/s
252.53 K, 200100 kPa | 1685.4 ± 2.7 m/s
252.53 K, 204800 kPa | 1695.3 ± 2.7 m/s
252.53 K, 215300 kPa | 1716.3 ± 2.8 m/s
252.53 K, 225100 kPa | 1735.1 ± 2.8 m/s
252.53 K, 230000 kPa | 1745 ± 2.8 m/s and 1745.4 ± 2.8 m/s
252.53 K, 240100 kPa | 1764.5 ± 2.8 m/s
252.54 K, 235200 kPa | 1755.1 ± 2.9 m/s
252.54 K, 239200 kPa | 1762.7 ± 2.8 m/s
252.54 K, 245000 kPa | 1774.1 ± 2.8 m/s
252.55 K, 225000 kPa | 1736.1 ± 2.8 m/s
252.56 K, 204900 kPa | 1695.4 ± 2.7 m/s
252.57 K, 198900 kPa | 1683.1 ± 2.7 m/s
252.57 K, 199400 kPa | 1684.1 ± 2.7 m/s
252.57 K, 229900 kPa | 1744.6 ± 2.8 m/s
252.57 K, 235200 kPa | 1754.8 ± 2.9 m/s
252.59 K, 225100 kPa | 1735.8 ± 2.8 m/s
252.61 K, 220300 kPa | 1726.3 ± 2.8 m/s
257.59 K, 225300 kPa | 1755 ± 2.7 m/s
257.6 K, 175100 kPa | 1654.5 ± 2.6 m/s
257.61 K, 199500 kPa | 1703.9 ± 2.7 m/s
257.61 K, 275200 kPa | 1847.7 ± 2.6 m/s
257.62 K, 274400 kPa | 1845.4 ± 2.9 m/s
257.64 K, 250200 kPa | 1801.3 ± 2.6 m/s
257.65 K, 224100 kPa | 1752.6 ± 2.8 m/s
257.65 K, 276100 kPa | 1848.6 ± 2.9 m/s
257.66 K, 199900 kPa | 1705.5 ± 2.6 m/s
257.66 K, 299900 kPa | 1889.6 ± 3 m/s
257.67 K, 249400 kPa | 1799.8 ± 2.8 m/s
257.67 K, 299700 kPa | 1889.4 ± 3 m/s
257.67 K, 300200 kPa | 1890.9 ± 2.6 m/s
257.67 K, 374600 kPa | 2011.2 ± 3.3 m/s
257.68 K, 325400 kPa | 1932.5 ± 3.1 m/s
257.68 K, 375300 kPa | 2012.5 ± 3.3 m/s
257.69 K, 176400 kPa | 1657.4 ± 2.6 m/s
257.69 K, 199600 kPa | 1704.5 ± 2.7 m/s
257.69 K, 249500 kPa | 1800.5 ± 2.8 m/s
257.69 K, 349300 kPa | 1972.1 ± 3.2 m/s
257.69 K, 350000 kPa | 1972.9 ± 3.2 m/s
257.7 K, 176200 kPa | 1657.4 ± 2.6 m/s
257.7 K, 224600 kPa | 1754 ± 2.8 m/s
257.7 K, 325000 kPa | 1928.5 ± 2.6 m/s
257.7 K, 325400 kPa | 1932.5 ± 3.1 m/s
262.63 K, 299800 kPa | 1906 ± 3 m/s
262.65 K, 224800 kPa | 1771.8 ± 2.7 m/s
262.68 K, 250600 kPa | 1820.4 ± 2.9 m/s
262.71 K, 324500 kPa | 1944.4 ± 3.1 m/s
262.71 K, 349400 kPa | 1982.7 ± 3.2 m/s
262.71 K, 399900 kPa | 2060 ± 3.3 m/s
262.72 K, 274600 kPa | 1861.2 ± 2.9 m/s
262.72 K, 374300 kPa | 2023.2 ± 3.2 m/s
262.72 K, 424300 kPa | 2095.3 ± 3.4 m/s
262.73 K, 249700 kPa | 1816.5 ± 2.8 m/s
262.73 K, 299400 kPa | 1903.1 ± 3 m/s
262.73 K, 324600 kPa | 1945.1 ± 3.1 m/s
262.73 K, 349600 kPa | 1984.2 ± 3.2 m/s
262.74 K, 124100 kPa | 1574.1 ± 2.5 m/s
262.74 K, 199800 kPa | 1725.4 ± 2.8 m/s
262.74 K, 299600 kPa | 1903.2 ± 3 m/s
262.74 K, 425600 kPa | 2097.8 ± 3.4 m/s
262.74 K, 449400 kPa | 2130.8 ± 3.5 m/s
262.74 K, 450500 kPa | 2133 ± 3.5 m/s
262.75 K, 274500 kPa | 1860.6 ± 2.9 m/s
262.76 K, 148400 kPa | 1623.4 ± 2.6 m/s
262.76 K, 150700 kPa | 1629.8 ± 2.6 m/s
262.76 K, 199800 kPa | 1724.8 ± 2.8 m/s
262.76 K, 224600 kPa | 1772.3 ± 2.7 m/s
262.76 K, 251000 kPa | 1819.5 ± 2.8 m/s
262.76 K, 350600 kPa | 1986.4 ± 3.2 m/s
262.76 K, 375100 kPa | 2023 ± 3.2 m/s
262.76 K, 399300 kPa | 2058.1 ± 3.3 m/s
262.77 K, 126300 kPa | 1578.6 ± 2.4 m/s
262.77 K, 174800 kPa | 1677.2 ± 2.6 m/s and 1676.9 ± 2.6 m/s
262.78 K, 399700 kPa | 2061.2 ± 3.3 m/s
262.81 K, 149800 kPa | 1626.1 ± 2.6 m/s
262.81 K, 200800 kPa | 1728.7 ± 2.8 m/s
267.77 K, 199500 kPa | 1744.1 ± 2.6 m/s
267.78 K, 100800 kPa | 1554.9 ± 2.3 m/s
267.78 K, 300400 kPa | 1918.4 ± 3 m/s
267.78 K, 349700 kPa | 1997.2 ± 3.2 m/s
267.79 K, 149600 kPa | 1649.8 ± 2.6 m/s and 1648.8 ± 2.6 m/s
267.79 K, 399600 kPa | 2070.9 ± 3.2 m/s
267.79 K, 500400 kPa | 2208.8 ± 3.5 m/s
267.8 K, 249400 kPa | 1833.6 ± 2.9 m/s
267.8 K, 449300 kPa | 2141.5 ± 3.5 m/s
267.81 K, 98500 kPa | 1551.2 ± 2.3 m/s
267.82 K, 400000 kPa | 2071.6 ± 3.2 m/s
267.84 K, 100500 kPa | 1554.9 ± 2.3 m/s
267.84 K, 199500 kPa | 1744.6 ± 2.6 m/s
267.84 K, 450700 kPa | 2144.1 ± 3.4 m/s
267.84 K, 500100 kPa | 2209.7 ± 3.5 m/s
267.85 K, 299400 kPa | 1918.6 ± 3 m/s
267.86 K, 399700 kPa | 2071.2 ± 3.2 m/s
267.87 K, 249600 kPa | 1835 ± 2.9 m/s
267.87 K, 251100 kPa | 1837.5 ± 2.9 m/s
267.87 K, 349700 kPa | 1997.5 ± 3.2 m/s
267.87 K, 449200 kPa | 2142.4 ± 3.5 m/s
267.88 K, 150800 kPa | 1652.5 ± 2.5 m/s
267.88 K, 299600 kPa | 1919.3 ± 3 m/s
